Paper PMC11077991, “The small molecule CBR-5884 inhibits the Candida albicans phosphatidylserine synthase” (mBio, 2024)
In brackets after ≈: the same amount, converted by molar mass. Like-named read-outs stand apart in the source and are kept apart here.

Columns and labels:
Assay type in all cases: cell-based, Candida albicans
[1] = system: wild-type C. albicans strain SC5314; assay: plate assays, CFU counting and growth curves in minimal media; details: for fungistatic or fungicidal effect (CFUs vs pre-incubation): 30 µM ebselen, 430 µM LOC14, 170 µM CBR-5884; for fungistatic or fungicidal effect (CFUs vs pre-incubation) / rescue of CFUs by 1 mM ethanolamine: 24 h; for rescue of CFUs by 1 mM ethanolamine: optimized drug concentrations (CBR-5884 ≥170 µM), minimal medium
Protocol: The antifungal effects of ebselen, LOC14 ,and CBR-5884 on live cells were further evaluated by plate assays and growth curves. First, we tried to determine if the inhibitory effects of these compounds were fungistatic or fungicidal. It should be highlighted that in contrast to the MIC assays, the plate assays and growth curve analyses necessitated a greater initial inoculum (OD600 of 0.05 as opposed to 0.00004) for detection. Additionally, a reduced incubation temperature of 30°C instead of 37°C was required to inhibit the hyphal formation, which, in turn, required the adjustment of compound concentrations used. For this, wild-type C. albicans strain SC5314 was grown with varying concentrations of ebselen, LOC14, and CBR-5884 in minimal media at 30°C for 24 h, along with a cho1ΔΔ strain as a control. […] To further determine the optimized inhibitory concentrations and whether the inhibition is fungistatic or fungicidal, wild-type C. abicans SC5314 was then incubated with ebselen, LOC14, and CBR-5884 in a dosage series with 10 µM increments within the inhibition range determined above, and colony forming units (CFUs) were counted after 24 h incubation.
Plate assays and growth curves were conducted in minimal media or minimal media supplemented with 1 mM ethanolamine (ETA). Wild-type SC5314 and cho1ΔΔ strains were grown in YPD overnight and washed three times with H2O before inoculation. The starting OD600 is 0.05 for both plate assays and growth curves. For plate assays, both wild-type and cho1ΔΔ strains were grown in flat-bottom 96-well plates at a final volume of 200 µL, in the presence of different compounds or DMSO as indicated at 30°C. The final DMSO concentration was maintained at 2.5% across all treatments. A Leica inverted microscope was then used to visualize growth after 24 h incubations. In the meantime, cells grown in different compounds were subjected to live cell counting. Cell cultures from flat-bottom 96-well plates after 24 h incubation were diluted 100–10,000 times before plating on the minimal media, and the total colony-forming unit (CFU) was kept within 200 for each plate. A total of six biological replicates were done in each condition.
The growth curves with LOC14 and CBR-5884 treatments were measured from 2 to 30 h with OD600 measurements every 2 h. A final concentration of 170 µM CBR-5884, 430 µM LOC14, and 5 mM serine was added into each group as indicated. To test the stability of CBR-5884, minimal medium supplemented with 170 µM CBR-5884 or equivalent DMSO was agitated for 12 h before the introduction of wildtype C. albicans SC5314 strain, and growth curves were recorded from 0 to 14 h with OD600 measurement every 2 h. To check the resistance of C. albicans in CBR-5884, SC5314 strain was grown in 170 µM CBR-5884 for 12 and 24 h before being diluted in fresh minimal medium supplemented with fresh 170 µM CBR-5884 or equivalent DMSO. The growth curves were recorded from 0 to 14 h with OD600 measurement every 2 h. The final DMSO concentration was maintained at 1.7% across all treatments.

[2] = system: wild-type C. albicans strain SC5314; assay: CLSI MIC broth microdilution; details: Candida albicans
Protocol: We then tested the effects of the six compounds on live cells by determining the minimal inhibitory concentrations (MICs) of these compounds. Following the standard Clinical & Lab Standards Institute (CLSI) MIC broth microdilution methods, wild-type C. albicans strain SC5314 was grown with avasimibe, CBR-5884, tideglusib, ebselen, ML-345, and LOC14 in RPMI MOPS medium (pH 7.0) or alternatively in minimal medium or minimal medium with HEPES (pH 7.0) at 37°C for 48 h, along with a cho1ΔΔ strain as a control (Fig. 3A through C). The concentration of the compounds was varied from 0.5 to 250 µM. […] Ebselen, LOC14, and CBR-5884, on the contrary, stopped cell growth at different concentrations in all three media, with MICs ranging between 7.8 and 31.3 μM (Fig. 3A through D). […] Specific MIC values are summarized in Fig. 3D for all the compounds.
Minimum inhibitory concentration (MIC) was determined following Clinical & Lab Standards Institute (CLSI) MIC broth microdilution protocol (Licensed to Todd Reynolds, license # Ord-1138682) ([98], [99]). Briefly, stock solutions of different compounds (purchased from MedChemExpress) were prepared at a concentration of 10 mM in DMSO and subsequently diluted as required in the same solvent. Wild-type C. albicans strain SC5314, as well as four additional wild-type strains—GDH2346, 3153A, TFPY412, and TFPY2307, were cultured overnight in YPD medium at 30°C, washed with water three times, and then diluted to a concentration of 2 × 10^3 cells/mL (OD600 = 0.00008) in one of the three media [minimal medium, minimal medium buffered with 50 mM HEPES (pH 7.0) and RPMI MOPS (pH 7.0)]. The cho1ΔΔ strain was also included as a control. A volume of 100 µL from each cell suspension was dispensed into the wells of a flat-bottom 96-well plate. An additional 100 µL of corresponding medium, containing twice the final desired concentration of each drug, was added to each well, leading to a final initial inoculum of 1 × 10^3 cells/mL (OD600 = 0.00004). The final DMSO concentration was maintained at 2.5% across all treatments. Following preparation, the plates were incubated at 37°C for 48 h and photos were taken with a Bio-Rad Gel Doc XR + Imaging System.

[3] = system: C. albicans strains GDH2346, 3153A, TFPY412 and TFPY2307; assay: CLSI MIC broth microdilution, additional wild-type strains; details: RPMI MOPS pH 7.0, 37°C, 48 h
Protocol: Furthermore, there are no current reports on the antifungal effects of LOC14 and CBR-5884. To rule out the possibility that their inhibition is strain-specific, we treated four additional C. albicans wildtype strains—GDH2346 ([54]), 3153A ([55]), and two clinical isolates TFPY412 and TFPY2307—with LOC14 and CBR-5884. Tests were done in RPMI MOPS (pH 7.0) medium at 37°C for 48 h following the CLSI MIC broth microdilution protocol, and a cho1ΔΔ strain was included as a control (Fig. 3E and F).
Minimum inhibitory concentration (MIC) was determined following Clinical & Lab Standards Institute (CLSI) MIC broth microdilution protocol (Licensed to Todd Reynolds, license # Ord-1138682) ([98], [99]). Briefly, stock solutions of different compounds (purchased from MedChemExpress) were prepared at a concentration of 10 mM in DMSO and subsequently diluted as required in the same solvent. Wild-type C. albicans strain SC5314, as well as four additional wild-type strains—GDH2346, 3153A, TFPY412, and TFPY2307, were cultured overnight in YPD medium at 30°C, washed with water three times, and then diluted to a concentration of 2 × 10^3 cells/mL (OD600 = 0.00008) in one of the three media [minimal medium, minimal medium buffered with 50 mM HEPES (pH 7.0) and RPMI MOPS (pH 7.0)]. The cho1ΔΔ strain was also included as a control. […]

[4] = SC5314, 48 h, pH 7, read-out: Minimal Inhibitory Concentration (MIC): MM, HEPES 7.0
[5] = SC5314, 48 h, pH 7, read-out: Minimal Inhibitory Concentration (MIC): RPMI, MOPS 7.0
[6] = SC5314, 48 h, read-out: MICs across all three media
[7] = SC5314, 48 h, read-out: Minimal Inhibitory Concentration (MIC): MM

SMILES	fungistatic or fungicidal effect (CFUs vs pre-incubation) [1]	effect of ethanolamine on growth rate and lag time ([1]; 170 µM CBR-5884, 1 mM ethanolamine)	effect of 5 mM serine on growth inhibition ([1]; 170 µM CBR-5884, growth curve 0-30 h)	duration of growth delay ([1]; 170 µM CBR-5884, minimal medium, 30°C)	rescue of CFUs by 1 mM ethanolamine [1]	MIC [2, 4]	MIC [2, 5]	MIC [2, 6]	MIC [2, 7]	growth inhibition of four additional wild-type strains [3]	CFU/μL after 24 h incubation with ethanolamine ([1]; 30 µM ebselen + 1 mM ETA)	MIC ([2]; SC5314, RPMI MOPS pH 7.0, 37°C, 48 h, read-out: Minimal Inhibitory Concentration (MIC): RPMI, MOPS 7.0)	MIC ([2]; SC5314, minimal medium with 50 mM HEPES pH 7.0, 37°C, 48 h, read-out: Minimal Inhibitory Concentration (MIC): MM, HEPES 7.0)	MIC ([2]; SC5314, minimal medium, 37°C, 48 h, read-out: Minimal Inhibitory Concentration (MIC): MM)	MIC ([2]; SC5314, minimal medium, minimal medium HEPES, RPMI MOPS, 37°C, 48 h, read-out: MICs across all three media)	growth curve in presence or absence of ethanolamine ([1]; 430 µM LOC14, 0-30 h)
CCOC(=O)c1sc(NC(=O)c2ccco2)c(SC#N)c1C [CBR-5884]	fungistatic effect	significantly increased the growth rate and decreased the lag time	serine did not help the cells recover	12 h	significantly higher CFUs	31.3 µM (≈ 10.5 µg/mL)	31.3 µM (≈ 10.5 µg/mL)	7.8 to 31.3 µM (≈ 2.62 to 10.5 µg/mL)	7.8 µM (≈ 2.62 µg/mL)	all strains were inhibited						
O=c1c2ccccc2[se]n1-c1ccccc1 [Ebselen]	fungicidal effect				did not rescue						0 CFU/μL	7.8 µM (≈ 2.14 µg/mL)	15.6 µM (≈ 4.28 µg/mL)	7.8 µM (≈ 2.14 µg/mL)	7.8 to 31.3 µM (≈ 2.14 to 8.58 µg/mL)	
O=C(C1CC1)N1CCN(Cn2sc3ccccc3c2=O)CC1 [LOC14]	fungistatic effect				did not rescue	15.6 µM (≈ 4.95 µg/mL)	31.3 µM (≈ 9.94 µg/mL)	7.8 to 31.3 µM (≈ 2.48 to 9.94 µg/mL)	15.6 µM (≈ 4.95 µg/mL)	all strains were inhibited						no cells grew
